The record followed here is PubChem BioAssay (NCI).

Each structure is given as a SMILES string. Where “and” joins values, the source holds several entries; their conditions need not be identical. Equal entries are not always repeated.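 Results reflect a 48-hour exposure of cells in 96-well plates to compound at five concentrations. GI50 marks 50% less growth. The concentration for full growth arrest is given as TGI.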

Assay in all cases: NCI anticancer screen, dose series, 48 h
In assay [1] the test system is MALME-3M melanoma.
The subject of assay [2] is DU-145 prostate.
The test system of assay [3] is MOLT-4 leukemia.
The subject of assay [4] is ACHN renal.
The test system of assay [5] is SNB-75 CNS.
In assay [6] the test system is SF-539 CNS.
In assay [7] the test system is UO-31 renal.
In assay [8] the test system is TK-10 renal.

Regarding `O=C1Nc2ccc(Cl)cc2/C1=C\c1c(-c2ccc(Cl)cc2)nc2sc(C3CC3)nn12`, the GI50 in assay [1] was 2.9 µM; in assay [2], 5.73 µM; in assay [3], 44.9 µM; in assay [4] it was 2.77 µM; in assay [5], 1380 nM; in assay [6] it was 1.88 µM. Also, the figures for the GI50 in assay [7] and in assay [8] were 2630 nM and 3.1 µM, respectively. Besides, the TGI in assay [1] is 8.79 µM; in assay [2], 17.6 µM; in assay [3], more than 100 µM; in assay [4], 12.3 µM; in assay [5], 3.19 µM; in assay [6], 3.78 µM. Moreover, the TGI in assay [7] came out at 14.8 µM; in assay [8] it was 7.97 µM.

Turning to `C=C1C[C@H]2C=Nc3cc(OCCCOc4cc5c(cc4OC)C(=O)N4CC(=C)C[C@H]4C=N5)c(OC)cc3C(=O)N2C1`, the GI50 in assay [1] is 0.0122 µM; in assay [2] it was 0.00496 µM and < 0.0133 µM; in assay [5], 1.78 nM; in assay [6] it was 0.00459 µM. The TGI in assay [1] was 0.0292 µM and < 0.0144 µM; in assay [2] it was 24 µM; in assay [3], 0.00105 µM; in assay [4], 0.0922 µM; in assay [5], 0.0145 µM and < 0.0155 µM; in assay [6], 0.0117 µM and 0.0286 µM. In addition, the TGI in assay [7] was 0.289 µM; in assay [8] it was less than 0.177 µM.

As to `CN(C)c1ccc(/C=C\c2ccnc3ccccc23)cc1`, the GI50 is 17.7 µM in assay [1]; 12.1 µM in assay [2]; 14.5 µM in assay [3]; 20.7 µM in assay [4]; 1440 nM in assay [5]; 5.17 µM in assay [6]. For the same molecule, the GI50 in assay [7] is 4400 nM; in assay [8], 14.7 µM. Also, the TGI was more than 89.2 µM in assay [1]; more than 88.5 µM in assay [2]; more than 100 µM in assay [3]; more than 100 µM in assay [4]; 8.97 µM in assay [5]; 25.8 µM in assay [6]. For the same molecule, the TGI is 68.7 µM in assay [7] and more than 100 µM in assay [8].

Consider `O=C1NC(=S)S/C1=C\c1cn(-c2ccccc2)nc1-c1ccccc1`, for which the GI50 in assay [1] is 3.84 µM; in assay [2] it was 12.6 µM; in assay [3] it was 14.8 µM; in assay [4], 7.4 µM; in assay [5] it was 17800 nM; in assay [6] it was 5.53 µM. For the same molecule, the GI50 is 4390 nM in assay [7] and 8 µM in assay [8]. For the same molecule, the TGI was 13.1 µM in assay [1]; more than 100 µM in assay [2]; more than 100 µM in assay [3]; 21.4 µM in assay [4]; 51.3 µM in assay [5]; 21.1 µM in assay [6]. Moreover, the results for the TGI in assay [7] and in assay [8] were 25.2 µM and 85.2 µM, respectively.

As to `CCCn1c2c(c3ccccc3c1=O)C(=O)c1ccccc1-2`, the TGI in assay [1], in assay [2], in assay [3], in assay [4], in assay [5] and in assay [6] was more than 100 µM in each case. For the same molecule, the TGI in assay [7] and in assay [8] was more than 100 µM in each case.

For the molecule `CCN(CC)c1ccc(/C=C/C(=O)c2ccc(Nc3nc(Nc4ccccc4)nc(Nc4ccccc4)n3)cc2)cc1`, the GI50 in assay [1] was 9.52 µM; in assay [2], 5.04 µM; in assay [3], 2.08 µM; in assay [4], 6.1 µM; in assay [5] it was 3900 nM; in assay [6] it was 9.08 µM. Moreover, the figures for the GI50 in assay [7] and in assay [8] were 2690 nM and 2.39 µM, respectively. The TGI in assay [1] was more than 100 µM; in assay [2], 79.2 µM; in assay [3], 12 µM; in assay [4], more than 100 µM; in assay [5] it was 64.8 µM; in assay [6], more than 100 µM. Further, the results for the TGI in assay [7] and in assay [8] were more than 100 µM and 19.8 µM, respectively.

On to `Cn1cc(/C=C\[N+](=O)[O-])c2ccccc21`, for which the GI50 in assay [1] was more than 100 µM; in assay [2], 29.7 µM; in assay [3] it was 23.7 µM; in assay [4], more than 100 µM; in assay [5] it was 26200 nM; in assay [6] it was 23.5 µM. Further, the GI50 is more than 100000 nM in assay [7] and 78.3 µM in assay [8]. Also, the TGI in assay [1] was more than 100 µM; in assay [2], 81.7 µM; in assay [3], 58.4 µM; in assay [4] it was more than 100 µM; in assay [5], 75.8 µM; in assay [6], 49.1 µM. Also, the TGI in assay [7] and in assay [8] was more than 100 µM each time.

For the molecule `N#CCn1c(=O)c(Oc2ccc(F)cc2F)cc2cnc(NC3CCOCC3)nc21`, the GI50 in assay [1] was more than 22.5 µM; in assay [2], more than 25 µM; in assay [3] it was more than 25 µM; in assay [4], 19.5 µM; in assay [5], more than 25000 nM; in assay [6], more than 25 µM. In addition, the GI50 is more than 19800 nM in assay [7] and more than 25 µM in assay [8]. Moreover, the TGI in assay [1], in assay [2], in assay [3], in assay [4], in assay [5] and in assay [6] was more than 25 µM in each case. For the same molecule, the TGI in assay [7] and in assay [8] was more than 25 µM each time.

Take `COc1cc2oc(-c3cccc(C(=O)Nc4ccc(Cl)cc4)c3)cc(=O)c2c(OC)c1OC`: the GI50 is 2.48 µM in assay [1]; 2.85 µM in assay [2]; 2.22 µM in assay [3]; 3.17 µM in assay [4]; 2660 nM in assay [5]; 2.56 µM in assay [6]. Moreover, the figures for the GI50 in assay [7] and in assay [8] were 2850 nM and 3.22 µM, respectively. In addition, the TGI in assay [1] was 7.26 µM; in assay [2], more than 100 µM; in assay [3], more than 100 µM; in assay [4], more than 100 µM; in assay [5], more than 100 µM; in assay [6], more than 100 µM. For the same molecule, the TGI in assay [7] and in assay [8] was more than 100 µM each time.

Turning to `CN1CCN(CC(=O)N(C)c2ccc(N=C(c3ccccc3)c3c(O)[nH]c4ccc(C#N)cc34)cc2)CC1`, the GI50 in assay [1] is 1.77 µM; in assay [2] it was 3.9 µM; in assay [3], 0.601 µM; in assay [4], 3.06 µM; in assay [6], 0.961 µM; in assay [7], 2420 nM. Also, in assay [8], the GI50 was 10.5 µM. In addition, the TGI in assay [1] was 3.39 µM; in assay [2], 14.4 µM; in assay [3], 9.38 µM; in assay [4], 10.9 µM; in assay [5], 5.49 µM; in assay [6], 2.23 µM. In addition, the TGI was 11.4 µM in assay [7] and 24.5 µM in assay [8].
